In US9737525B2, “Small molecule activators of NRF2 pathway” (The General Hospital Corporation, priority 2013, dated 2017):
“Also recorded” adds a separate entry of the source. Read-outs that look alike come from different tables or passages of the source.

How the values were obtained:
[1] = molecular target: recombinant human KEAP1 protein (Homo sapiens (Human), UniProt Q14145); experiment: SPR (Surface Plasmon Resonance) Biacore binding assay
Method: Briefly, compound MIND4-17 and MIND4 binding to baculovirous expressed KEAP1 by Surface Plasmon Resonance (SPR) binding Biacore assay was performed by CRO Precision Antibody, Inc. Binding experiments were performed on Biacore T-200 at 25° C. using CM5 chip. Anti-GST tag antibody was immobilized by amine coupling. The ligand KEAP1 was captured until 800 RU was reached. Antigen was flowed over the chip at variable concentrations. Binding of analyte to the ligand was monitored in real time to obtain on (ka) and off (kd) rates. The equilibrium constant (KD) was calculated from the observed ka and kd. In pilot experiment the analytes MIND4 and MIND4-17 were flowed over the chip at 3 different concentrations as indicated and kinetic analysis was performed. Full kinetic analysis was performed for MIND4-17 using analyte concentrations of 140 μM (the saturating amount) and run at serial dilutions 70, 35, 17.5, 8.75, 4.375 and 0. Chi square (χ^2) analysis was carried out between the actual Sensorgram (colored line) and the sensorgram generated from the BIAnalysis software (black line) to determine the accuracy of the analysis. (χ^2) value within 2-1 is considered significant (accurate) and below 1 is highly significant (highly accurate). The flow rate used for capturing the ligand was […] and the flow rate for kinetics analysis was […]. The Biacore binding assay was performed using assay buffer: 10 mM HEPES buffer (pH 7.4), 150 mM NaCl, 3 mM EDTA, 0.005% P20 (polyoxyethylenesorbitan), 5% DMSO; regeneration buffer: 10 mM HEPES buffer (pH 7.4), 150 mM NaCl, 3 mM EDTA, 0.005% P20 (polyoxyethylenesorbitan), 5% DMSO; and conjugation buffer: 10 mM sodium acetate buffer (pH 4.5).

[2] = tested on: primary cortical neurons expressing 140Q full-length mutant huntingtin; experiment: Neuronal viability assay (MTT), wild type and HD primary cortical neurons; type: cell-based, mouse; conditions: for Cytotoxicity in primary neurons: 0.5 μM and higher
Method: Embryonic tissue from wild type and 140Q mouse brains (E15-E17 days into pregnancy) was used to isolate and plate cortical neurons as described (Valencia et al., 2013). Neurons were plated at 8×10^5 cell/ml in a 24-well plate supplemented with 25 μM of L-glutamate and 10 μM of 2-β-mercapto-ethanol (Gibco). Plates were previously coated with poly-L-lysine (30-70 kDa, SIGMA) in borate buffer at pH 8.0 and coated again using DMEM/F12+FBS 10% for 2 hours prior to plating. After 3 days in culture, neurons were treated with 10 μM of β-D-cytosine arabinofurinoside for 24 hours to prevent the proliferation of non-neuronal cells.
Neurons were supplemented with MIND4 at different concentrations 0, 0.1, 0.25 and 0.5 μM at days in vitro 4, 6 and 8 (FIG. 3A). […] To maintain drug concentrations, half of the culture media was replenished with fresh media at each time point and MIND4 treatment doses were adjusted accordingly. Cell viability was measured at DIV 10 as previously described based on the ability of viable neurons to transformed MTT (3-(4,5-Dimethylthiazol-2-yl)-2,5-diphenyltetrazolium bromide) into formazan blue crystals (Valencia et al., 2013). Neurons were incubated with 0.5 mg/ml of MTT for 15 minutes, media was then discarded and formazan blue crystals were dissolved in DMSO 100% and read at 540 nm in a Vector plate reader. Results are expressed as Mean±Standard deviation absorbance units at 540 nm (AU). P values were obtained using a Student's t-test from an N=6 wells per condition for treated wild type and HD neurons.
Cell survival was measured as MTT transformation at 10 days in vitro (DIV). Neurons were treated three times with the compounds at 4, 6 and 8 DIV at the indicated concentrations. Two independent experiments were performed with a total of 13 embryos per genotype, 6 WT and 7 HD respectively; 6 wells were used for each experimental condition (compound dose).

[3] = tested on: NRF2-responsive proteins NQO1 and GCLM; experiment: Induction of NQO1 and GCLM proteins in differentiated ST14A cells (immunoblotting); type: cell-based, rat; conditions: differentiated HD mutant and wild type ST14A cells, 24 hours
Method: To assess protein levels, cell extracts were prepared from cells washed with PBS and lysed with buffer containing 2% SDS, Complete EDTA-free Protease Inhibitor Cocktail (Roche) and 1 mM phenylmethylsulfonyl fluoride. To prepare brain extracts for analysis, frozen mouse cortical tissues were homogenized in PBS containing protease inhibitors with an Kontes Pellet Pestle (Kimble/Kontes). They were later sonicated and lysed overnight at 4° C. in 2× volume of lysis buffer containing 2% SDS and protease inhibitors. Protein concentrations in ST14A cell extracts and homogenized cortical tissues were evaluated using a BCA analysis kit and normalized. Samples were prepared in a SDS buffer containing DTT and separated on bis-acrylamide protein gels via electrophoresis and transferred onto a 0.2 μm PVDF membrane). Membranes were probed for NQO1 (Sigma N5288, 1:1,000), GCLM, (Abcam ab126704, 1:800), SIRT2 (Sigma S8447, 1:2,500), histone H3 (Cell Signaling 4499, 1:2,000), acetylated H3 (K56) (Millipore 04-1135, 1:500), TNFα (Abcam ab1793, 1:1,500), GADPH (Millipore MAB374, 1:10,000), actin (Sigma A2066, 1:1250), α-tubulin (Sigma T6074, 1:20,000), and acetylated α-tubulin (Sigma T6793, 1:2,500) overnight in 5% milk in PBST at 4° C. on a rocker. Membranes were thrice washed in PBST for 15 min on a shaker and incubated in either an anti-rabbit-HRP (Bio-Rad 170-5046, 1:10,000) or anti-mouse-HRP (Sigma A3682, 1:4,000) secondary solution as appropriate in 3% milk in PBST for 1 hr at room temperature on a rocker. After four washes of 15 min in PBST on a shaker, blots were visualized using SuperSignal West Pico Chemiluminescent Substrate (Pierce 34080) or SuperSignal West Dura Extended Duration Substrate (Thermo 34075) and exposed on Scientific Imaging Film (Kodak 864 6770).
Compound bioactivity was tested in the rat embryonic striatal cell lines ST14A, which stably express either a mutant expanded repeat (128Q) or wild type (26Q) 546 amino acid huntingtin (HTT) fragment (a generous gift of E. Cattaneo) (Ehrlich et al., 2001) ST14A cells were propagated at 33° C. in the presence of serum. To induce neuronal differentiation, cells were serum deprived and cultured at 37° C. in the presence of N2 supplement. Cells were treated with compounds concurrently with induction of neuronal differentiation for 24 hours, as described (Quinti et al., 2010).
The NRF2 activation properties of further MIND4 structural analogs with variable potencies of SIRT2 inhibition were tested as described previously (see Table 1) Changes in expression of the canonical NRF2-responsive proteins NQO1 and GCLM, the transcription of which was induced by MIND4, was selected as a readout of pathway activation. Protein levels of NQO1 and GCLM were examined by immunoblotting in compound treated mutant HD and wild-type ST14A cells. […] This hypothesis was tested using a second panel of MIND4 analogs (see Table 3).

[4] = 0.25 μM, treated at 4, 6 and 8 DIV, MTT at 10 DIV

Sequence of recombinant human KEAP1 protein (Q14145 whole entry): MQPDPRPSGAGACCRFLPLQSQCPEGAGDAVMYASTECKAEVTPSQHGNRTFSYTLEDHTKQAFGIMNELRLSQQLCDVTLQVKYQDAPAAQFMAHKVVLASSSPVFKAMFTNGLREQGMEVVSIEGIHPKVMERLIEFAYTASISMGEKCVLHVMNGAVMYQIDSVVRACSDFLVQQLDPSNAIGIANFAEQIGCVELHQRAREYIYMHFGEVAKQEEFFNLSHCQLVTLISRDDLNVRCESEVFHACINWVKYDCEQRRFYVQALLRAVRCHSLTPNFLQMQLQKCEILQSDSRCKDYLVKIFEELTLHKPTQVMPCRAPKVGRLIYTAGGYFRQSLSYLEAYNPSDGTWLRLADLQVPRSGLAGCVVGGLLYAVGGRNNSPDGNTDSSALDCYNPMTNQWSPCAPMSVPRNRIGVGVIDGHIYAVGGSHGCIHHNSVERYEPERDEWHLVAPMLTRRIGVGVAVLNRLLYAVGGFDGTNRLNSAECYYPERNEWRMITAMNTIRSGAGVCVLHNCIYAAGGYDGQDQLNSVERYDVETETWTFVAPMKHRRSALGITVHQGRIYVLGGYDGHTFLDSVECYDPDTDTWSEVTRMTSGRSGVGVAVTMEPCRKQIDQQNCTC

| SMILES | Kd [1] [µM] | Mode of binding to KEAP1 [1] | Kd ([1]; 25° C., kinetic analysis) [µM] | Survival of HD neurons [2, 4] | Cytotoxicity in primary neurons [2] | Induction of NRF2-responsive proteins NQO1 and GCLM [3] | Survival of HD neurons ([2]; 0.1 μM) | Survival of HD neurons ([2]; 0.1 μM and 0.25 μM, treated at DIV 4, 6, 8, MTT at DIV 10) | Effect on control cortical neurons from wild type mice ([2]; 7 days of treatment) |
| --- | --- | --- | --- | --- | --- | --- | --- | --- | --- |
| O=[N+]([O-])c1ccc(Sc2nnc(COc3ccccc3)n2-c2ccccc2)nc1 [MIND4-17] | 16.5 | reversible binding | 16.5 | enhanced survival of HD neurons | cytotoxic | potently induces NRF2-responses; also recorded: dose-dependent induction of NQO1 protein |  |  |  |
| O=[N+]([O-])c1ccc(Sc2nnc(COc3ccccc3)n2-c2ccccc2)c2ncccc12 [MIND4, 5-nitro-8-{[5-(phenoxymethyl)-4-phenyl-4H-1,2,4-triazol-3-yl]thio}quinoline] | 22.8 | reversible binding | 22.8 | enhanced survival of HD neurons | cytotoxic | induced dose-dependent increases of NQO1 and GCLM protein | partially improved survival | improved survival of HD neurons at both doses | No effects |
